Measurements reported in PubChem BioAssay AID2060616 (Molecular Pharmacology Branch, DTP, NCI, 2025).
Values joined by “and” are separate entries in the source; they are usually repeats but may differ in a detail not shown here. Identical values can stand only once. Values belong to the molecule of their own block, whether it stands above or below them.

System: 377384-186-R-J1-PDC complex spheroid viability
Assay: Anticancer human tumor 377384-186-R-J1-PDC patient-derived pancreatic carcinoma cell line growth inhibition [CLK]
Settings: for viability, T/C: stronger effect = lower value
Source text: A high-throughput screen of multi-cell type tumor spheroids was designed to identify active combinations of […] and targeted small molecules. Complex spheroids include a stromal component modeled by human endothelial cells (HUVEC) and fibroblasts modeled by human mesenchymal stem cells (MSCs). The concentration ranges selected for each drug and investigational agent were based upon clinically achievable concentrations if the clinical Cmax of the agent was known.
Compounds. The drugs and investigational agents: cirtuvivint (SM08502; NSC835563), CC-671 (NSC850746), vemurafenib (NSC761431), tapotoclax (NSC804041), sotorasib (NSC818433), adagrasib (NSC831453), MRTX-1133 (NSC836407), BAY2416964 (NSC825713), copanlisib (NSC816437), inavolisib (NSC800729), abemaciclib (NSC768073), osimertinib (NSC779217), entinostat (NSC756642), eltanexor (KPT-8602, NSC794443), venetoclax (NSC766270), ceralasertib (NSC777638), bortezomib (NSC756655), olaparib (NSC753686), talazoparib (NSC767125), alisertib (NSC759677), peposertib (NSC802822), gemcitabine (NSC613327), 5-fluorouracil (NSC19893), SN-38 (NSC673596), oxaliplatin (NSC266046), paclitaxel (NSC125973), and doxorubicin (NSC123127), were obtained from the National Cancer Institute (NCI) Developmental Therapeutics Program Chemical Repository. The FDA-approved anticancer drug set is available from the Developmental Therapeutics Program at https://dtp.cancer.gov/organization/dscb/obtaining/available plates.htm. […] The stock solutions were prepared in dimethyl sulfoxide (DMSO, Sigma-Aldrich, St. Louis, MO, cat. D2650), except for the platinum complexes which were prepared in saline (Quality Biological, Gaithersburg, MD, cat. 114-055-101), at 800-fold the tested concentration and stored at -70 degrees C prior to their use. All drugs and investigational agents were tested over a range starting from a high concentration at or near the clinical Cmax and decreasing in half-log increments. If the clinical Cmax for an agent had not been determined, the highest concentration tested was 10 microM.
Cell Culture. All cells were maintained in an incubator at 37 degrees C and 5% CO2 with 95% humidity. The PDC lines were cultured according to standard operating procedures established by the NCI PDMR. Briefly, all PDCs were thawed and cultured in Matrigel-coated flasks prepared with a working solution of 1X Ham's F-12 nutrient mix, without supplementation (Invitrogen, Waltham, MA, cat. 11765054), 100 U/mL penicillin-streptomycin (Invitrogen, cat. 15140122), and 2.5% Matrigel (Corning Inc., Corning, NY, cat. 354248) for the first three passages. The 947758-054-R-J2-PDC line was cultured in 6B/Colon 1A media, which includes advanced DMEM/F-12 (Thermo Fisher Scientific, cat. 12634028), 10 mM HEPES (Thermo Fisher Scientific, cat. 15630080), 1X GlutaMAX supplement (Thermo Fisher Scientific, cat. 35050061), 0.1 mg/mL primocin (InvivoGen, cat. ant-pm-2), 10% defined fetal bovine serum, heat inactivated (HyClone Laboratories Inc., cat. SH30070.03HI), 1.25 mM N-Acetyl-L-cysteine (Sigma-Aldrich, cat. A9165), 10 mM nicotinamide (Sigma-Aldrich, cat. N0636), 1X B-27 supplement (Thermo Fisher Scientific, cat. 17504044), 1X N-2 supplement (Thermo Fisher Scientific, cat. 17502048), and 10 microM Y-27632 dihydrochloride (Tocris Bioscience, cat. 1254). The 876862-298-R-J1-PDC was cultured in 6E media, which includes all 6B/Colon 1A media components plus 50% L-WRN conditioned media (ATCC, cat. CRL-3276), 50 ng/mL recombinant human EGF recombinant protein (hEGF; Thermo Fisher Scientific, cat. PHG0311), 10 ng/mL recombinant human fibroblast growth factor 10 (hGFG-10; PeproTech, cat. 100-26), 1 ng/mL recombinant human fibroblast growth factor 2 (hFGF-2; PeproTech, cat. 100-18B), and 1 µM prostaglandin E2 (PGE2; Tocris, cat. 2296). The 227483-062-R1-J1-PDC line was cultured in Panc media, containing all 6E components except hFGF-2, with the addition of 500 nM SB-431542 (Selleckchem, cat. S1067) and 10 nM gastrin (Tocris, cat. 3006). […]
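Also: spheroids exposed to agents for 7 days before reading.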
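For viability, T/C in this document: luminescence signal used as a stand-in for viable cells.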

IC50 (curve of first compound, second compound 0.0316 µM): < 3.16 nM
IC50 (curve of first compound, second compound 0.1 µM): < 3.16 nM
IC50 (curve of first compound, second compound 0.316 µM): < 3.16 nM
IC50 (curve of first compound, second compound 1 µM): < 3.16 nM
IC50 (curve of first compound, second compound 3.16 µM): < 3.16 nM
IC50 (curve of first compound, second compound 10 µM): < 3.16 nM
Compound: CCc1c2c(nc3ccc(O)cc13)-c1cc3c(c(=O)n1C2)COC(=O)[C@]3(O)CC + CNC(=O)c1ccc(Nc2nc(OC3CCCC3)c3c(-c4ccc5nc(C)oc5c4)c[nH]c3n2)c(OC)c1
viability, T/C (second compound 0.0316 µM, first compound 0.00316 µM): 25.8%
viability, T/C (second compound 0.0316 µM, first compound 0.01 µM): 11.6%
viability, T/C (second compound 0.0316 µM, first compound 0.0316 µM): 4.72%
viability, T/C (second compound 0.0316 µM, first compound 0.1 µM): 2.28%
viability, T/C (second compound 0.0316 µM, first compound 0.316 µM): 1.46%
viability, T/C (second compound 0.0316 µM, first compound 1 µM): 0.55%
viability, T/C (second compound 0.1 µM, first compound 0.00316 µM): 17.5%
viability, T/C (second compound 0.1 µM, first compound 0.01 µM): 9.08%
viability, T/C (second compound 0.1 µM, first compound 0.0316 µM): 4.28%
viability, T/C (second compound 0.1 µM, first compound 0.1 µM): 2.07%
viability, T/C (second compound 0.1 µM, first compound 0.316 µM): 1.21%
viability, T/C (second compound 0.1 µM, first compound 1 µM): 0.63%
viability, T/C (second compound 0.316 µM, first compound 0.00316 µM): 10.7%
viability, T/C (second compound 0.316 µM, first compound 0.01 µM): 7%
viability, T/C (second compound 0.316 µM, first compound 0.0316 µM): 3.57%
viability, T/C (second compound 0.316 µM, first compound 0.1 µM): 2.54%
viability, T/C (second compound 0.316 µM, first compound 0.316 µM): 1.19%
viability, T/C (second compound 0.316 µM, first compound 1 µM): 0.53%
viability, T/C (second compound 1 µM, first compound 0.00316 µM): 12.9%
viability, T/C (second compound 1 µM, first compound 0.01 µM): 8.91%
viability, T/C (second compound 1 µM, first compound 0.0316 µM): 3.7%
viability, T/C (second compound 1 µM, first compound 0.1 µM): 1.76%
viability, T/C (second compound 1 µM, first compound 0.316 µM): 1.06%
viability, T/C (second compound 1 µM, first compound 1 µM): 0.66%
viability, T/C (second compound 3.16 µM, first compound 0.00316 µM): 14.4%
viability, T/C (second compound 3.16 µM, first compound 0.01 µM): 8.07%
viability, T/C (second compound 3.16 µM, first compound 0.0316 µM): 3.3%
viability, T/C (second compound 3.16 µM, first compound 0.1 µM): 1.8%
viability, T/C (second compound 3.16 µM, first compound 0.316 µM): 1.68%
viability, T/C (second compound 3.16 µM, first compound 1 µM): 0.58%
viability, T/C (second compound 10 µM, first compound 0.00316 µM): 13.4%
viability, T/C (second compound 10 µM, first compound 0.01 µM): 8.53%
viability, T/C (second compound 10 µM, first compound 0.0316 µM): 3.76%
viability, T/C (second compound 10 µM, first compound 0.1 µM): 1.55%
viability, T/C (second compound 10 µM, first compound 0.316 µM): 0.98%
viability, T/C (second compound 10 µM, first compound 1 µM): 0.79%

IC50 (curve of compound): > 10000 nM
Compound: CCCS(=O)(=O)Nc1ccc(F)c(C(=O)c2c[nH]c3ncc(-c4ccc(Cl)cc4)cc23)c1F
viability, T/C (compound 0.0316 µM): 94.9% and 92.5%
viability, T/C (compound 0.1 µM): 86% and 102%
viability, T/C (compound 0.316 µM): 120% and 114%
viability, T/C (compound 1 µM): 126% and 124%
viability, T/C (compound 3.16 µM): 114% and 105%
viability, T/C (compound 10 µM): 59.8% and 57.9%
